Measurements published in patent publication US12290596B2, “Compositions and methods for the treatment of opioid overdose” (priority 2021, dated 2025).

Assay: Three-treatment crossover pharmacokinetics of IN nalmefene, three dosing regimens (Example 13)
Settings: human, plasma, […]

C=C1CC[C@@]2(O)[C@H]3Cc4ccc(O)c5c4[C@@]2(CCN3CC2CC2)[C@H]1O5 [Nalmefene, 17-cyclopropylmethyl-4,5α-epoxy-6-methylenemorphinan-3,14-diol]
concentration at 0 h (other: intranasal (IN spray), 6 mg, Mean, Time 0.00, T3: 6 mg nalmefene HCl IN, two 0.1 mL sprays in one nostril): 0 ng/mL
concentration at 2.5 min (other: intranasal (IN spray), 6 mg, Mean, Time 0.0416, T3: 6 mg nalmefene HCl IN, two 0.1 mL sprays in one nostril): 1.35 ng/mL
concentration at […] (other: intranasal (IN spray), 6 mg, Mean, Time 0.0833, T3: 6 mg nalmefene HCl IN, two 0.1 mL sprays in one nostril): 5.05 ng/mL
concentration at […] (other: intranasal (IN spray), 6 mg, Mean, Time 0.166, T3: 6 mg nalmefene HCl IN, two 0.1 mL sprays in one nostril): 14.1 ng/mL
concentration at […] (other: intranasal (IN spray), 6 mg, Mean, Time 0.250, T3: 6 mg nalmefene HCl IN, two 0.1 mL sprays in one nostril): 16.9 ng/mL
concentration at […] (other: intranasal (IN spray), 6 mg, Mean, Time 0.333, T3: 6 mg nalmefene HCl IN, two 0.1 mL sprays in one nostril): 14.6 ng/mL
concentration at […] (other: intranasal (IN spray), 6 mg, Mean, Time 0.750, T3: 6 mg nalmefene HCl IN, two 0.1 mL sprays in one nostril): 9.92 ng/mL
concentration at 1 h (other: intranasal (IN spray), 6 mg, Mean, Time 1.00, T3: 6 mg nalmefene HCl IN, two 0.1 mL sprays in one nostril): 9.59 ng/mL
concentration at 2 h (other: intranasal (IN spray), 6 mg, Mean, Time 2.00, T3: 6 mg nalmefene HCl IN, two 0.1 mL sprays in one nostril): 8.86 ng/mL
concentration at 3 h (other: intranasal (IN spray), 6 mg, Mean, Time 3.00, T3: 6 mg nalmefene HCl IN, two 0.1 mL sprays in one nostril): 6.9 ng/mL
concentration at 4 h (other: intranasal (IN spray), 6 mg, Mean, Time 4.00, T3: 6 mg nalmefene HCl IN, two 0.1 mL sprays in one nostril): 5.37 ng/mL
concentration at 6 h (other: intranasal (IN spray), 6 mg, Mean, Time 6.00, T3: 6 mg nalmefene HCl IN, two 0.1 mL sprays in one nostril): 3.69 ng/mL
concentration at 8 h (other: intranasal (IN spray), 6 mg, Mean, Time 8.00, T3: 6 mg nalmefene HCl IN, two 0.1 mL sprays in one nostril): 2.69 ng/mL
concentration at 12 h (other: intranasal (IN spray), 6 mg, Mean, Time 12.0, T3: 6 mg nalmefene HCl IN, two 0.1 mL sprays in one nostril): 1.93 ng/mL
concentration at 18 h (other: intranasal (IN spray), 6 mg, Mean, Time 18.0, T3: 6 mg nalmefene HCl IN, two 0.1 mL sprays in one nostril): 1.11 ng/mL
concentration at 24 h (other: intranasal (IN spray), 6 mg, Mean, Time 24.0, T3: 6 mg nalmefene HCl IN, two 0.1 mL sprays in one nostril): 0.792 ng/mL
concentration at 48 h (other: intranasal (IN spray), 6 mg, Mean, Time 48.0, T3: 6 mg nalmefene HCl IN, two 0.1 mL sprays in one nostril): 0.182 ng/mL
concentration at 0 h (other: intranasal (IN spray), 6 mg, Median, Time 0.00, T3: 6 mg nalmefene HCl IN, two 0.1 mL sprays in one nostril): 0 ng/mL
concentration at 2.5 min (other: intranasal (IN spray), 6 mg, Median, Time 0.0416, T3: 6 mg nalmefene HCl IN, two 0.1 mL sprays in one nostril): 0.746 ng/mL
concentration at […] (other: intranasal (IN spray), 6 mg, Median, Time 0.0833, T3: 6 mg nalmefene HCl IN, two 0.1 mL sprays in one nostril): 2.58 ng/mL
concentration at […] (other: intranasal (IN spray), 6 mg, Median, Time 0.125, T3: 6 mg nalmefene HCl IN, two 0.1 mL sprays in one nostril): 4.96 ng/mL
concentration at […] (other: intranasal (IN spray), 6 mg, Median, Time 0.166, T3: 6 mg nalmefene HCl IN, two 0.1 mL sprays in one nostril): 8.55 ng/mL
concentration at […] (other: intranasal (IN spray), 6 mg, Median, Time 0.250, T3: 6 mg nalmefene HCl IN, two 0.1 mL sprays in one nostril): 12.8 ng/mL
concentration at […] (other: intranasal (IN spray), 6 mg, Median, Time 0.750, T3: 6 mg nalmefene HCl IN, two 0.1 mL sprays in one nostril): 9.69 ng/mL
concentration at 1 h (other: intranasal (IN spray), 6 mg, Median, Time 1.00, T3: 6 mg nalmefene HCl IN, two 0.1 mL sprays in one nostril): 8.88 ng/mL
concentration at 2 h (other: intranasal (IN spray), 6 mg, Median, Time 2.00, T3: 6 mg nalmefene HCl IN, two 0.1 mL sprays in one nostril): 8.6 ng/mL
concentration at 3 h (other: intranasal (IN spray), 6 mg, Median, Time 3.00, T3: 6 mg nalmefene HCl IN, two 0.1 mL sprays in one nostril): 6.35 ng/mL
concentration at 4 h (other: intranasal (IN spray), 6 mg, Median, Time 4.00, T3: 6 mg nalmefene HCl IN, two 0.1 mL sprays in one nostril): 4.89 ng/mL
concentration at 6 h (other: intranasal (IN spray), 6 mg, Median, Time 6.00, T3: 6 mg nalmefene HCl IN, two 0.1 mL sprays in one nostril): 3.51 ng/mL
concentration at 8 h (other: intranasal (IN spray), 6 mg, Median, Time 8.00, T3: 6 mg nalmefene HCl IN, two 0.1 mL sprays in one nostril): 2.46 ng/mL
concentration at 12 h (other: intranasal (IN spray), 6 mg, Median, Time 12.0, T3: 6 mg nalmefene HCl IN, two 0.1 mL sprays in one nostril): 1.82 ng/mL
concentration at 18 h (other: intranasal (IN spray), 6 mg, Median, Time 18.0, T3: 6 mg nalmefene HCl IN, two 0.1 mL sprays in one nostril): 1.12 ng/mL
concentration at 24 h (other: intranasal (IN spray), 6 mg, Median, Time 24.0, T3: 6 mg nalmefene HCl IN, two 0.1 mL sprays in one nostril): 0.729 ng/mL
concentration at 48 h (other: intranasal (IN spray), 6 mg, Median, Time 48.0, T3: 6 mg nalmefene HCl IN, two 0.1 mL sprays in one nostril): 0.176 ng/mL
concentration at 0 h (other: intranasal (IN) spray, 3 mg, Max, T1 (3 mg IN, one spray in one nostril), time 0.00): 0 ng/mL
concentration at 2.5 min (other: intranasal (IN) spray, 3 mg, Max, T1 (3 mg IN, one spray in one nostril), time 0.0416): 0.766 ng/mL
concentration at […] (other: intranasal (IN) spray, 3 mg, Max, T1 (3 mg IN, one spray in one nostril), time 0.125): 16.9 ng/mL
concentration at […] (other: intranasal (IN) spray, 3 mg, Max, T1 (3 mg IN, one spray in one nostril), time 0.166): 20.4 ng/mL
concentration at […] (other: intranasal (IN) spray, 3 mg, Max, T1 (3 mg IN, one spray in one nostril), time 0.250): 22.1 ng/mL
concentration at […] (other: intranasal (IN) spray, 3 mg, Max, T1 (3 mg IN, one spray in one nostril), time 0.333): 20.2 ng/mL
concentration at 1 h (other: intranasal (IN) spray, 3 mg, Max, T1 (3 mg IN, one spray in one nostril), time 1.00): 9.54 ng/mL
concentration at 2 h (other: intranasal (IN) spray, 3 mg, Max, T1 (3 mg IN, one spray in one nostril), time 2.00): 7.64 ng/mL
concentration at 3 h (other: intranasal (IN) spray, 3 mg, Mean, T1 (3 mg IN, one spray in one nostril), time 3.00): 3.7 ng/mL
concentration at 4 h (other: intranasal (IN) spray, 3 mg, Mean, T1 (3 mg IN, one spray in one nostril), time 4.00): 2.99 ng/mL
concentration at 6 h (other: intranasal (IN) spray, 3 mg, Mean, T1 (3 mg IN, one spray in one nostril), time 6.00): 2.06 ng/mL
concentration at 8 h (other: intranasal (IN) spray, 3 mg, Mean, T1 (3 mg IN, one spray in one nostril), time 8.00): 1.44 ng/mL
concentration at 12 h (other: intranasal (IN) spray, 3 mg, Mean, T1 (3 mg IN, one spray in one nostril), time 12.0): 0.992 ng/mL
concentration at 18 h (other: intranasal (IN) spray, 3 mg, Mean, T1 (3 mg IN, one spray in one nostril), time 18.0): 0.591 ng/mL
concentration at 24 h (other: intranasal (IN) spray, 3 mg, Mean, T1 (3 mg IN, one spray in one nostril), time 24.0): 0.412 ng/mL
concentration at 48 h (other: intranasal (IN) spray, 3 mg, Mean, T1 (3 mg IN, one spray in one nostril), time 48.0): 0.0942 ng/mL
concentration at 2.5 min (other: intranasal (IN) spray, 3 mg, Median, T1 (3 mg IN, one spray in one nostril), time 0.0416): 0.362 ng/mL
concentration at […] (other: intranasal (IN) spray, 3 mg, Median, T1 (3 mg IN, one spray in one nostril), time 0.0833): 1.29 ng/mL
concentration at […] (other: intranasal (IN) spray, 3 mg, Median, T1 (3 mg IN, one spray in one nostril), time 0.125): 3.65 ng/mL
concentration at […] (other: intranasal (IN) spray, 3 mg, Median, T1 (3 mg IN, one spray in one nostril), time 0.166): 6.28 ng/mL
concentration at […] (other: intranasal (IN) spray, 3 mg, Median, T1 (3 mg IN, one spray in one nostril), time 0.250): 8.04 ng/mL
concentration at […] (other: intranasal (IN) spray, 3 mg, Median, T1 (3 mg IN, one spray in one nostril), time 0.333): 8.07 ng/mL
concentration at […] (other: intranasal (IN) spray, 3 mg, Median, T1 (3 mg IN, one spray in one nostril), time 0.750): 5.85 ng/mL
concentration at 2 h (other: intranasal (IN) spray, 3 mg, Median, T1 (3 mg IN, one spray in one nostril), time 2.00): 4.62 ng/mL
concentration at 3 h (other: intranasal (IN) spray, 3 mg, Min, T1 (3 mg IN, one spray in one nostril), time 3.00): 2.16 ng/mL
concentration at 4 h (other: intranasal (IN) spray, 3 mg, Min, T1 (3 mg IN, one spray in one nostril), time 4.00): 1.97 ng/mL
concentration at 0 h (other: intranasal, 3 mg, Mean, T1 (3 mg IN, one spray in one nostril), time 0.00): 0 ng/mL
concentration at 2.5 min (other: intranasal, 3 mg, Mean, T1 (3 mg IN, one spray in one nostril), time 0.0416): 0.353 ng/mL
concentration at […] (other: intranasal, 3 mg, Mean, T1 (3 mg IN, one spray in one nostril), time 0.0833): 2.38 ng/mL
concentration at […] (other: intranasal, 3 mg, Mean, T1 (3 mg IN, one spray in one nostril), time 0.125): 5.1 ng/mL
concentration at […] (other: intranasal, 3 mg, Mean, T1 (3 mg IN, one spray in one nostril), time 0.166): 7.78 ng/mL
concentration at […] (other: intranasal, 3 mg, Mean, T1 (3 mg IN, one spray in one nostril), time 0.250): 9.17 ng/mL
concentration at […] (other: intranasal, 3 mg, Mean, T1 (3 mg IN, one spray in one nostril), time 0.333): 8.79 ng/mL
concentration at […] (other: intranasal, 3 mg, Mean, T1 (3 mg IN, one spray in one nostril), time 0.750): 5.99 ng/mL
concentration at 1 h (other: intranasal, 3 mg, Mean, T1 (3 mg IN, one spray in one nostril), time 1.00): 5.47 ng/mL
concentration at 2 h (other: intranasal, 3 mg, Mean, T1 (3 mg IN, one spray in one nostril), time 2.00): 4.99 ng/mL
concentration at 0 h (other: intranasal, 3 mg, Median, T1 (3 mg IN, one spray in one nostril), time 0.00): 0 ng/mL
concentration at 1 h (other: intranasal, 3 mg, Median, T1 (3 mg IN, one spray in one nostril), time 1.00): 5.11 ng/mL
concentration at 0 h (other: intranasal, 3 mg, Min, T1 (3 mg IN, one spray in one nostril), time 0.00): 0 ng/mL
concentration at 2.5 min (other: intranasal, 3 mg, Min, T1 (3 mg IN, one spray in one nostril), time 0.0416): 0 ng/mL
concentration at […] (other: intranasal, 3 mg, Min, T1 (3 mg IN, one spray in one nostril), time 0.0833): 0.319 ng/mL
concentration at […] (other: intranasal, 3 mg, Min, T1 (3 mg IN, one spray in one nostril), time 0.125): 0.642 ng/mL
concentration at […] (other: intranasal, 3 mg, Min, T1 (3 mg IN, one spray in one nostril), time 0.166): 1.09 ng/mL
concentration at […] (other: intranasal, 3 mg, Min, T1 (3 mg IN, one spray in one nostril), time 0.250): 1.88 ng/mL
concentration at […] (other: intranasal, 3 mg, Min, T1 (3 mg IN, one spray in one nostril), time 0.333): 1.97 ng/mL
concentration at […] (other: intranasal, 3 mg, Min, T1 (3 mg IN, one spray in one nostril), time 0.750): 2.52 ng/mL
concentration at 2 h (other: intranasal, 3 mg, Min, T1 (3 mg IN, one spray in one nostril), time 2.00): 3.28 ng/mL
concentration at 0 h (other: intranasal, 6 mg, individual subject, Time 0.00, T3: 6 mg nalmefene HCl IN, two 0.1 mL sprays in one nostril): 0 ng/mL
